In the assay the target is T1, BRM (Homo sapiens, UniProt P51531).
T1 construct: In-Cell Western Screen of BRM Degradation in SW1573 Cells; endogenous in cells; host or cells: SW1573
In words: In-cell Western screen of BRM degradation in SW1573 cells (Dmax and DC50). The format is cell-based. As to conditions: BRM degradation, SW1573 cells. The gist of the method: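 SW1573 cells were treated overnight (18-20 hours) with compound at 0.1% final DMSO. They were then PFA-fixed, permeabilised with Triton X-100 and immunostained with 800 nm/680 nm secondary antibodies. BRM signal was quantified by LI-COR in-cell Western imaging to derive Dmax and DC50.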

For five molecules, DC50 and Dmax results are on record in patent US12539292B2, “BRM targeting compounds and associated methods of use” (Arvinas Operations, Inc., priority 2018, dated 2026).

Like-named read-outs stand apart in the source and are kept apart here.

T1 sequence (P51531 whole entry): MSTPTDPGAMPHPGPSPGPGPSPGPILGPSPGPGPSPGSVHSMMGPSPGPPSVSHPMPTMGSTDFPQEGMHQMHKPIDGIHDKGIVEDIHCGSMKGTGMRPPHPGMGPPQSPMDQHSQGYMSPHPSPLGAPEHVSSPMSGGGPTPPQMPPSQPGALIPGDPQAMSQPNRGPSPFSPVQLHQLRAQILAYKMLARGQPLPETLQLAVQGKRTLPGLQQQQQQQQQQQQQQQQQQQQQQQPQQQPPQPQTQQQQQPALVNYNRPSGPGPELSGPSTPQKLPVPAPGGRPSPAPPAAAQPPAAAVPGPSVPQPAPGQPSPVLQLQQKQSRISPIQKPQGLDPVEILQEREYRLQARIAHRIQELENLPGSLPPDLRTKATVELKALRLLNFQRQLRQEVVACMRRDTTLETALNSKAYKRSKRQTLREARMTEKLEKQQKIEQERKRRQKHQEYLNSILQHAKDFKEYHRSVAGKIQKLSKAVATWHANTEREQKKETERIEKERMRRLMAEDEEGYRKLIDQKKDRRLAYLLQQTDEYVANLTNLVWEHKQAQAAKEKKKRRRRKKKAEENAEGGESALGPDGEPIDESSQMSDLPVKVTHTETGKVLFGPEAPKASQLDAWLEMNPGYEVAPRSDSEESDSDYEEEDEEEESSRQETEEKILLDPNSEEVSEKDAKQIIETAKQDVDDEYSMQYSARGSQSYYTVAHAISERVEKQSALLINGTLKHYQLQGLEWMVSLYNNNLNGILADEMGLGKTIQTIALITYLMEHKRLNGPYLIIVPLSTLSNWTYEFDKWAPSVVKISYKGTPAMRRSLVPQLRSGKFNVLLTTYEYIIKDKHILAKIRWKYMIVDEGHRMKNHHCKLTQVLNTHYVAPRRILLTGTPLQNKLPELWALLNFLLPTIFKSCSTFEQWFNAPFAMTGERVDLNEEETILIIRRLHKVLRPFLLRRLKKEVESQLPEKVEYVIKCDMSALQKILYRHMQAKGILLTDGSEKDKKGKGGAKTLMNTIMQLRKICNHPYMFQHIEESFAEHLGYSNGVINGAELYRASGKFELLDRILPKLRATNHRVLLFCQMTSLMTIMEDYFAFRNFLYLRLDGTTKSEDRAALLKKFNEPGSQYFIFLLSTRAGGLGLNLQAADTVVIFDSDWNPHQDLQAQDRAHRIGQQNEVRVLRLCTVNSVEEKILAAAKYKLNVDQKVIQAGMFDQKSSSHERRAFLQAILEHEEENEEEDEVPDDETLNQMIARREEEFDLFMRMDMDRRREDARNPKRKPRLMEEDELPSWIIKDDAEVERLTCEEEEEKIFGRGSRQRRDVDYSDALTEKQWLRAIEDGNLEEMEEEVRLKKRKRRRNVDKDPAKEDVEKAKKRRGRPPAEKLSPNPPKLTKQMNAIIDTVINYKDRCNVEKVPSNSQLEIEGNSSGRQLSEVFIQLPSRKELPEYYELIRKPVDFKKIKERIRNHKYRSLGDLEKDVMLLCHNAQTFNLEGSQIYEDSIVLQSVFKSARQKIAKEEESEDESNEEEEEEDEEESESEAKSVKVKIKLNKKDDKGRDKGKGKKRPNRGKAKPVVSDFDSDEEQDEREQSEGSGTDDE

As for `Cc1ncsc1-c1ccc([C@H](C)NC(=O)[C@@H]2C[C@@H](O)CN2C(=O)[C@H](c2cc(OCC#Cc3ncc(O[C@H]4C[C@H](Oc5cc(N6C7CCC6CN(c6cc(-c8ccccc8O)nnc6N)C7)ccn5)C4)cn3)no2)C(C)C)cc1` [compound 231, (2S,4R)-1-((2S)-2-(3-((3-(5-((1r,3S)-3-((4-(3-(3-amino-6-(2-hydroxyphenyl)pyridazin-4-yl)-3,8-diazabicyclo[3.2.1]octan-8-yl)pyridin-2-yl)oxy)cyclobutoxy)pyrimidin-2-yl)prop-2-yn-1-yl)oxy)isoxazol-5-yl)-3-methylbutanoyl)-4-hydroxy-N-((S)-1-(4-(4-methylthiazol-5-yl)phenyl)ethyl)pyrrolidine-2-carboxamide], for the setting “read-out: DC50”, the DC50 – broadly, the concentration giving 50% degradation – is < 2.5 nM. For the same molecule, the Dmax (as a rule, the greatest extent of degradation seen) (tested at the top concentration of between 0.3 and 10 μM, read-out: Dmax (%) (% degraded)) is > 75%. In the case of `Cc1ncsc1-c1ccc(CNC(=O)[C@@H]2C[C@@H](O)CN2C(=O)[C@H](c2cc(OCCN3CCN(CCOc4cc(N5C6CCC5CN(c5cc(-c7ccccc7O)nnc5N)C6)ccn4)CC3)no2)C(C)C)cc1` [compound 41, (2S,4R)-1-[(2S)-2-[3-[2-(4-[2-[(4-[3-[3-amino-6-(2-hydroxyphenyl)pyridazin-4-yl]-3,8-diazabicyclo[3.2.1]octan-8-yl]pyridin-2-yl)oxy]ethyl]piperazin-1-yl)ethoxy]-1,2-oxazol-5-yl]-3-methylbutanoyl]-4-hydroxy-N-[[4-(4-methyl-1,3-thiazol-5-yl)phenyl]methyl]pyrrolidine-2-carboxamide], under “read-out: DC50”, the DC50 lay in the range of 10 to 30 nM. For the same molecule, the Dmax (when tested at the top concentration of between 0.3 and 10 μM, read-out: Dmax (%) (% degraded)) was > 75%. For the molecule `Cc1ncsc1-c1ccc([C@H](C)NC(=O)[C@@H]2C[C@@H](O)CN2C(=O)[C@H](c2cc(N3CCC4(CC3)CN(CC3CCN(C[C@H]5C[C@H](Oc6cc(N7C8CCC7CN(c7cc(-c9ccccc9O)nnc7N)C8)ccn6)C5)CC3)C4)no2)C(C)C)cc1` [compound 694, (2S,4R)-1-((2S)-2-(3-(2-((1-(((1r,3r)-3-((4-(3-(3-amino-6-(2-hydroxyphenyl)pyridazin-4-yl)-3,8-diazabicyclo[3.2.1]octan-8-yl)pyridin-2-yl)oxy)cyclobutyl)methyl)piperidin-4-yl)methyl)-2,7-diazaspiro[3.5]nonan-7-yl)isoxazol-5-yl)-3-methylbutanoyl)-4-hydroxy-N-((S)-1-(4-(4-methylthiazol-5-yl)phenyl)ethyl)pyrrolidine-2-carboxamide], the DC50 (read-out: DC50) was > 30 nM. Turning to `Cc1ncsc1-c1ccc([C@H](COCC2CCOCC2)NC(=O)[C@@H]2C[C@@H](O)CN2C(=O)[C@H](c2cc(OCCN3CCN(CCOc4cc(N5C6CCC5CN(c5cc(-c7ccccc7O)nnc5N)C6)ccn4)CC3)no2)C(C)C)cc1` [compound 262, (2S,4R)-1-((2S)-2-(3-(2-(4-(2-((4-(3-(3-amino-6-(2-hydroxyphenyl)pyridazin-4-yl)-3,8-diazabicyclo[3.2.1]octan-8-yl)pyridin-2-yl)oxy)ethyl)piperazin-1-yl)ethoxy)isoxazol-5-yl)-3-methylbutanoyl)-4-hydroxy-N-((R)-1-(4-(4-methylthiazol-5-yl)phenyl)-2-((tetrahydro-2H-pyran-4-yl)methoxy)ethyl)pyrrolidine-2-carboxamide], the DC50 (read-out: DC50) is > 30 nM. For the molecule `Cc1ncsc1-c1ccc([C@H](C)NC(=O)[C@@H]2C[C@@H](O)CN2C(=O)[C@@H](c2cc(OCC[C@H]3CCN(C[C@H]4C[C@H](Oc5cc(N6C7CCC6CN(c6cc(-c8ccccc8O)nnc6N)C7)ccn5)C4)C[C@H]3C)no2)C(C)C)cc1` (racemic) [compound 566, (2S,4R)-1-((2R)-2-(3-(2-((3S,4R)-1-(((1r,3S)-3-((4-(3-(3-amino-6-(2-hydroxyphenyl)pyridazin-4-yl)-3,8-diazabicyclo[3.2.1]octan-8-yl)pyridin-2-yl)oxy)cyclobutyl)methyl)-3-methylpiperidin-4-yl)ethoxy)isoxazol-5-yl)-3-methylbutanoyl)-4-hydroxy-N-((S)-1-(4-(4-methylthiazol-5-yl)phenyl)ethyl) pyrrolidine-2-carboxamide], the greatest degradation seen (Dmax) (Table 2D, read-out: **Dmax (%) (% degraded)) is > 75%. Besides, under “Table 2D, read-out: *DC50”, the DC50 is < 2.5 nM.
